Measurements: patent US6610853B1, “N-(phenylsulfonyl)picolinamide derivatives, process for producing the same, and herbicide” (Kureha Kagaku Kogyo K.K., priority 2000, dated 2003)

Legend:
Assay in all cases: Test on herbicidal activity by foliar application
Assay type in all cases: in vivo
Details in all cases: foliar spray, 1 kg/ha, plants at 1-2 leaf stage in pots, evaluated 14 days after spraying
Matricaria chamomilla = system: Matricaria chamomilla
Outline: (§1)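 Wettable-powder formulations sprayed at 1 kg/ha onto foliage of pot-grown plants at the 1-2 leaf stage. Activity was scored 14 days after spraying on a 1–5 scale (1: <30%, 2: 30–50%, 3: 50–70%, 4: 70–90%, 5: ≥90% inhibition).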

Veronica hederaefolia = system: Veronica hederaefolia
Outline: as §1

Stellaria media = system: Stellaria media
Outline: as §1

Abutilon theophrasti = system: Abutilon theophrasti
Outline: as §1

Sinapis arvensis = system: Sinapis arvensis
Outline: as §1

Galium aparine = system: Galium aparine
Outline: as §1

Convolvulus arvensis = system: Convolvulus arvensis
Outline: as §1

Amaranthus retroflexus = system: Amaranthus retroflexus
Outline: as §1

Bidens pilosa = system: Bidens pilosa
Outline: as §1

Setaria viridis = system: Setaria viridis
Outline: as §1

Solanum nigrum = system: Solanum nigrum
Outline: as §1

Compound | Herbicidal activity, Matricaria chamomilla (Matricaria chamomilla) | Herbicidal activity, Veronica hederaefolia (Veronica hederaefolia) | Herbicidal activity, Stellaria media (Stellaria media) | Herbicidal activity, Abutilon theophrasti (Abutilon theophrasti) | Herbicidal activity, Sinapis arvensis (Sinapis arvensis) | Herbicidal activity, Galium aparine (Galium aparine) | Herbicidal activity, Convolvulus arvensis (Convolvulus arvensis) | Herbicidal activity, Amaranthus retroflexus (Amaranthus retroflexus) | Herbicidal activity, Bidens pilosa (Bidens pilosa) | Herbicidal activity, Setaria viridis (Setaria viridis) | Herbicidal activity, Solanum nigrum (Solanum nigrum)
COc1ccc(C(=O)NS(=O)(=O)c2ccccc2S(=O)(=O)N(C)C)nc1[N+](=O)[O-] [Compound I-858, N-[[2-(N,N-Dimethylaminosulfonyl)phenyl]-sulfonyl]-5-methoxy-6-nitro-2-pyridinecarboxamide] | 4 (70% or more-90% inhibition) | 4 (70% or more-90% inhibition) | 5 (90% or more inhibition) | 5 (90% or more inhibition) | 5 (90% or more inhibition) | 5 (90% or more inhibition) | 5 (90% or more inhibition) | 5 (90% or more inhibition) | 5 (90% or more inhibition) | 5 (90% or more inhibition) | 5 (90% or more inhibition)
COc1ccc(C(=O)NS(=O)(=O)c2ccccc2S(=O)(=O)N(C)C)nc1C [Compound I-859, N-[[2-(N,N-Dimethylaminosulfonyl)phenyl]-sulfonyl]-6-methyl-5-methoxy-2-pyridinecarboxamide] | 5 (90% or more inhibition) | 5 (90% or more inhibition) | 5 (90% or more inhibition) | 5 (90% or more inhibition) | 5 (90% or more inhibition) | 5 (90% or more inhibition) | 4 (70% or more-90% inhibition) | 5 (90% or more inhibition) | 5 (90% or more inhibition) | 5 (90% or more inhibition) | 5 (90% or more inhibition)
CN(C)S(=O)(=O)c1ccccc1S(=O)(=O)NC(=O)c1cccc(Cl)n1 [Compound I-861, N-[[2-(N,N-Dimethylaminosulfonyl)phenyl]-sulfonyl)-6-chloro-2-pirydinecarboxamide] | 5 (90% or more inhibition) | 4 (70% or more-90% inhibition) | 5 (90% or more inhibition) | 5 (90% or more inhibition) | 5 (90% or more inhibition) | 5 (90% or more inhibition) | 5 (90% or more inhibition) | 5 (90% or more inhibition) | 5 (90% or more inhibition) | 5 (90% or more inhibition) | 5 (90% or more inhibition)
COc1ccc(C(=O)NS(=O)(=O)c2ccccc2S(=O)(=O)N(C)C)nc1 [Compound I-864] | 5 (90% or more inhibition) | 4 (70% or more-90% inhibition) | 5 (90% or more inhibition) | 5 (90% or more inhibition) | 5 (90% or more inhibition) | 4 (70% or more-90% inhibition) | 3 (50% or more-70% inhibition) | 3 (50% or more-70% inhibition) | 5 (90% or more inhibition) | 4 (70% or more-90% inhibition) | 4 (70% or more-90% inhibition)
Cc1nc(C(=O)NS(=O)(=O)c2ccccc2S(=O)(=O)N(C)C)ccc1[N+](=O)[O-] [Compound I-868, N-[[2-(N,N-Dimethylaminosulfonyl)phenyl]-sulfonyl]-6-methyl-5-nitro-2-pyridinecarboxamide] | 2 (30% or more-50% inhibition) | 3 (50% or more-70% inhibition) | 4 (70% or more-90% inhibition) | 3 (50% or more-70% inhibition) | 5 (90% or more inhibition) | 5 (90% or more inhibition) | 3 (50% or more-70% inhibition) | 3 (50% or more-70% inhibition) | 5 (90% or more inhibition) | 3 (50% or more-70% inhibition) | 4 (70% or more-90% inhibition)
COc1cc(Cl)nc(C(=O)NS(=O)(=O)c2ccccc2S(=O)(=O)N(C)C)c1 [Compound I-885, 6-Chloro-4-methoxy-N-[[2-(N,N-dimethylaminosulfonyl)phenyl]sulfonyl]-2-pyridinecarboxamide] | 5 (90% or more inhibition) | 4 (70% or more-90% inhibition) | 5 (90% or more inhibition) | 5 (90% or more inhibition) | 5 (90% or more inhibition) | 5 (90% or more inhibition) | 5 (90% or more inhibition) | 5 (90% or more inhibition) | 5 (90% or more inhibition) | 5 (90% or more inhibition) | 5 (90% or more inhibition)
COc1ccc(C(=O)NS(=O)(=O)c2ccccc2S(=O)(=O)N(C)C)nc1Cl [Compound I-888, N-[[2-(N,N-Dimethylaminosulfonyl)phenyl]-sulfonyl]-6-chloro-5-methoxy-2-pyridinecarboxamide] | 5 (90% or more inhibition) | 4 (70% or more-90% inhibition) | 5 (90% or more inhibition) | 5 (90% or more inhibition) | 5 (90% or more inhibition) | 5 (90% or more inhibition) | 5 (90% or more inhibition) | 5 (90% or more inhibition) | 5 (90% or more inhibition) | 5 (90% or more inhibition) | 5 (90% or more inhibition)
COc1ccc(C(=O)NS(=O)(=O)c2ccccc2S(=O)(=O)N(C)C)nc1OC [Compound I-889, N-[[2-(N,N-Dimethylaminosulfonyl)phenyl]-sulfonyl]-5,6-dimethoxy-2-pyridinecarboxamide] | 5 (90% or more inhibition) | 3 (50% or more-70% inhibition) | 5 (90% or more inhibition) | 5 (90% or more inhibition) | 5 (90% or more inhibition) | 5 (90% or more inhibition) | 4 (70% or more-90% inhibition) | 5 (90% or more inhibition) | 5 (90% or more inhibition) | 4 (70% or more-90% inhibition) | 4 (70% or more-90% inhibition)
COc1ccc(C(=O)NS(=O)(=O)c2ccccc2S(=O)(=O)N(C)C)nc1Br [Compound I-895, N-[[2-(N,N-Dimethylaminosulfonyl)phenyl]-sulfonyl]-6-bromo-5-methoxy-2-pyridinecarboxamide] | 5 (90% or more inhibition) | 5 (90% or more inhibition) | 5 (90% or more inhibition) | 5 (90% or more inhibition) | 5 (90% or more inhibition) | 5 (90% or more inhibition) | 5 (90% or more inhibition) | 5 (90% or more inhibition) | 5 (90% or more inhibition) | 5 (90% or more inhibition) | 5 (90% or more inhibition)
COc1cc(Cl)nc(C(=O)NS(=O)(=O)c2c(F)cccc2F)c1 [Compound I-975, N-[(2,6-Difluorophenyl)sulfonyl]-6-chloro-4-methoxy-2-pyridinecarboxamide] | 4 (70% or more-90% inhibition) | 3 (50% or more-70% inhibition) | 4 (70% or more-90% inhibition) | 5 (90% or more inhibition) | 5 (90% or more inhibition) | 5 (90% or more inhibition) | 4 (70% or more-90% inhibition) | 3 (50% or more-70% inhibition) | 5 (90% or more inhibition) | 3 (50% or more-70% inhibition) | 5 (90% or more inhibition)
